How the values were obtained:
[1] = biological target: T1, Replicase polyprotein 1ab (Severe acute respiratory syndrome coronavirus 2, UniProt P0DTD1); experiment: Binding affinity to SARS-CoV-2 3CL protease assessed as dissociation constant by SPR analysis
[2] = biological target: T1, Replicase polyprotein 1ab; experiment: Inhibition of SARS-CoV-2 3CL protease by FRET assay
[3] = biological target: T1, Replicase polyprotein 1ab; experiment: Binding affinity to SARS-CoV-2 3CL protease extracted from Escherichia coli BL21 (DE3) Rosetta cells assessed as dissociation constant
[4] = biological target: T1, Replicase polyprotein 1ab; experiment: Inhibition of SARS-CoV-2 3CL protease extracted from Escherichia coli BL21 (DE3) Rosetta cells using DabcylKNSTLQSGLRKE-Edan as substrate preincubated for 60 mins followed by substrate addition and measured after 20 mins by FRET assay

SMILES: CCC(C(=O)Nc1cc(NC2COC2)ccc1C)n1cccc2nc(SCc3ccc(F)cc3)nc1-2 (stereo not given)
- Kd [1]: 1400 nM

SMILES: CCC(C(=O)Nc1cc(NC2CCNC2)ccc1C)n1cccc2nc(SCc3ccc(F)cc3)nc1-2 (stereo not given)
- IC50 [2]: 140 nM

SMILES: CCC(C(=O)Nc1cc(NC2CCOCC2)ccc1C)n1cc(Cl)cc2nc(SCc3ccc(F)cc3)nc1-2 (stereo not given)
- Kd [3]: 1000 nM
- IC50 [4]: 520 nM

SMILES: CCC(C(=O)Nc1cc(NC2CCOC2)ccc1C)n1cc(Cl)cc2nc(SCc3ccc(F)cc3)nc1-2 (stereo not given)
- Kd [3]: 1110 nM

— BindingDB's records for PubMed 39288705 (Comenius University Bratislava)
